Literature values in US7838081B2, “Liquor that avoids the apparition of stains produced by fungi in lignocellulosic materials such as wood” (priority 2005, dated 2010).

SMILES | LD50 acute oral rat (rat) [mg/kg] | LD50 acute termal rabbit (rabbit) [mg/kg] | Results against stains of the wood (in words) (stains of the wood)
[Cu+2].[O-]c1cccc2cccnc12.[O-]c1cccc2cccnc12 [Copper 8 oxiquinolinate (PQ-8), Copper 8 oxiquinolinate] | 3.900 to 4.700 | >2.000 | 
Oc1c(Cl)c(Cl)c(Cl)c(Cl)c1Cl [Pentachlorophenol] |  |  | good results
Oc1c(Br)cc(Br)cc1Br [2,4,6 Tribromophenol] | >5.000 | >8.000 | good results
